# Read-outs that look alike come from different tables or passages of the source.
# Columns and labels:
# [1] = HDHS levels in plasma and tumors of treated nude mice (HPLC); type: in vivo; conditions: 24 h after the last of 24 doses; for concentration at 24 h after the last dose: athymic (nu/nu) nude, mouse, in vivo, read-out: HDHS level in plasma
# Description: 22Rv1 cells were derived from a castration-relapsed tumor of human PCa origin that represents a clinical limitation for hormonal therapy (Nagabhushan M, et al., Cancer Res 1996;56:3042-6; Sramkoski R M, et al., In Vitro Cell Dev Biol Anim 1999; 35:403-9). The potential of HDHS to inhibit growth of PCa in vivo was tested in athymic nude mice with 22Rv1 tumors. […]. All animal work was done in accordance with the protocol approved by the Institutional Animal Care and Use Committee, Academia Sinica. Aliquots of 1×10^6 22Rv1 cells were suspended in 1:1 PBS mixed with Matrigel (BD Biosciences, San Jose, Calif.) and were subcutaneously inoculated into the right flank of each mouse. Once the tumor grew to palpable size one week after 22Rv1 cells were implanted, mice were stochastically assigned to three groups (n=7) that received vehicle control or HDHS at different dosages (0.5 and 2.5 mg/kg/day), by gavage in 0.2 mL of PBS containing 10% DMSO. Tumors were measured twice per week using calipers and their volumes calculated using a standard formula, as follows: width2×length×0.5. Body weight was measured weekly. Mice received 24 doses, and 24 h after the last dose they were sacrificed to harvest plasma and tumors. A portion of each tumor was snap-frozen in liquid nitrogen and stored at −80° C. until needed for western blot analysis of relevant biomarkers, and the remainder was fixed in 10% formalin overnight.
# In order to further understand the dose-effect relationships, the attainable levels of HDHS in plasma and tumors were detected 24 h after the last dose of HDHS regimen in the tested mice. […]. These increases of HDHS concentrations in plasma and tumors were dose-dependent and consistent with the extent of tumor suppression (FIGS. 6A and B).
# 22Rv1 cells [2] = experiment: Morphology of treated cells; conditions: 22Rv1, 10 to 50 μM, 48 h
# Description: The long-term effect of HDHS on the malignant growth of AR-dependent (22Rv1, and LNCaP) and AR-independent (PC-3) PCa cells was examined by colony-forming growth assay.
# LNCaP cells [3] = experiment: Western blot of caspases, PARP, p53 and Bcl-xL; type: cell-based, human; conditions: 10 μM
# Description: During apoptosis, various caspases are activated which are involved in the cleavage and […] a range of cellular substrates, including […] the DNA repair enzyme PARP (Herceg Z et al., Mol Cell Biol 1999;10:5124-33; Okada H et al., Nat Rev Cancer 2004; 4:592-603). In the presence of 10 μM HDHS, PARP cleavage was observed, and at the same time caspase-3 and -7 were activated by proteolytic cleavage (FIG. 4B, lane 5). […] In contrast, activation of caspase-3 and -7 or cleavage of PARP were not detected in PC-3 cells treated with 10 μM HDHS for 24 h (FIG. 4B, lane 10). Tumor suppressor p53 is a control for the G1 checkpoint and cell apoptosis, and LNCaP cells express wild-type p53 (van Bokhoven A et al., Prostate 2003; 57:205-25).
# PC-3 cells [4] = experiment: Cell cycle distribution by propidium iodide flow cytometry; type: cell-based, human; conditions: 48 h
# Description: (§2) The cell cycle of treated cells was examined by flow cytometry after cellular staining with propidium iodide. 5×10^5 cells were seeded into 6-well multidishes with 10% FBS culture medium for 48 h. […] Cells were trypsinized thereafter, washed twice with cold PBS, and centrifuged. The pellet was suspended in cold PBS and 1 mL of 70% ethanol at 4° C. overnight, washed twice with cold PBS, and digested with RNase (100 μg/mL final concentration) and stained with propidium iodide (10 μg/mL final concentration) for 30 min and analyzed by flow cytometry (EPICS XL-MCL, Beckman Coulter, Inc., Fullerton, Calif.).
# 22Rv1 cells [5] = experiment: MTT cell viability; type: cell-based, human; conditions: 22Rv1, concentrations above 10 μM, 48 h
# Description: (§1) The effects of HDHS on cell viability in various PCa cell lines including androgen-dependent LNCaP, androgen-responsive 22Rv1 cells, and androgen-independent PC-3 cells were tested and compared with untransformed fibroblast NIH-3T3 cells. PCa or NIH-3T3 cells (1×10^4 cells) were seeded into 96-well microtiter plates with 10% FBS culture medium. After 24 h, cells were incubated in 10% FBS medium containing different concentrations of HDHS or equivalent amounts of vehicle alone as control for 48 h. Cell viability was then determined by MTT assay, which quantitatively measures the metabolic activity of living cells.
# LNCaP cells [6] = experiment: MTT cell viability; type: cell-based, human; conditions: concentrations above 10 μM, 48 h
# Description: as §1
# PC-3 cells [7] = experiment: MTT cell viability; type: cell-based, human; conditions: PC-3, concentrations above 10 μM, 48 h, versus LNCaP and 22Rv1
# Description: as §1
# LNCaP cells [8] = experiment: Cell cycle distribution by propidium iodide flow cytometry; type: cell-based, human; conditions: 48 h
# Description: as §2
# [9] = tested on: PSA and AR expression in LNCaP cells; experiment: Western blot of PSA and AR expression in DHT-treated LNCaP cells; type: cell-based, human; conditions: 10 nM DHT, 24 h
# Excerpt: The AR suppressing activity of HDHS was also examined in LNCaP cells, another androgen-dependent PCa cell line. […] Expression of endogenous PSA in treated cells, as a measure of cellular response to androgen, and AR activity were detected by western blot with anti-PSA and anti-AR antibodies. Protein levels (relative to actin; listed below the first two blots) were quantitatively analyzed with Chemigenius (Biolabo). The blots shown in FIG. 2B are representative of three independent experiments.
structure (smiles),measurement,setting,value
"CC(C)c1cc2c(cc1O)[C@@]1(C)CCCC(C)(C)C1=C(O)C2=O [Compound 2, 6,12-dihydroxyabieta-5,8,11,13-tetraen-7-one]",concentration at 24 h after the last dose,[1]; oral 0.5 mg/kg,450 ± 140 nM
same,concentration at 24 h after the last dose,[1]; oral 2.5 mg/kg,1450 ± 300 nM
same,HDHS level in tumor tissues,[1]; oral 0.5 mg/kg,98.45 ± 19.80 nmol/g
same,HDHS level in tumor tissues,[1]; oral 2.5 mg/kg,154.93 ± 12.97 nmol/g
same,morphology of treated cells,22Rv1 cells [2],cell rounding and surface blebbing
same,PARP cleavage,LNCaP cells [3],observed
same,caspase-3 and -7 proteolytic cleavage,LNCaP cells [3],activated
same,decrease of anti-apoptotic regulator Bcl-xL level,LNCaP cells [3]; 24 h,~50%
same,increase in p53,LNCaP cells [3]; 24 h,3 fold
same,G0-G1 phase cell population,"PC-3 cells [4]; PC-3, 2.5 μM",52.7 ± 2.0 %
same,G2-M phase cell population,"PC-3 cells [4]; PC-3, 2.5 μM",24.9 ± 2.7 %
same,S phase cell population,"PC-3 cells [4]; PC-3, 2.5 μM",19.2 ± 1.0 %
same,Sub-G1 phase cell population,"PC-3 cells [4]; PC-3, 2.5 μM",2.3 ± 0.7 %
same,G0-G1 phase cell population,"PC-3 cells [4]; PC-3, 5 μM",55.9 ± 2.9 %
same,G2-M phase cell population,"PC-3 cells [4]; PC-3, 5 μM",19.5 ± 2.9 %
same,S phase cell population,"PC-3 cells [4]; PC-3, 5 μM",18.8 ± 1.1 %
same,Sub-G1 phase cell population,"PC-3 cells [4]; PC-3, 5 μM",2.8 ± 0.9 %
same,G0-G1 phase cell population,"PC-3 cells [4]; PC-3, 10 μM",58.2 ± 2.8 %
same,G2-M phase cell population,"PC-3 cells [4]; PC-3, 10 μM",19.2 ± 3.2 %
same,S phase cell population,"PC-3 cells [4]; PC-3, 10 μM",18.0 ± 1.9 %
same,Sub-G1 phase cell population,"PC-3 cells [4]; PC-3, 10 μM",2.1 ± 0.6 %
same,cell viability (MTT),22Rv1 cells [5],strongly reduced cell viability
same,cell viability (MTT),LNCaP cells [6],strongly reduced cell viability
same,cell viability (MTT),PC-3 cells [7],far less pronounced
same,G0-G1 phase cell population,LNCaP cells [8]; 2.5 μM,62.6 ± 2.8 %
same,G2-M phase cell population,LNCaP cells [8]; 2.5 μM,21.1 ± 2.4 %
same,S phase cell population,LNCaP cells [8]; 2.5 μM,11.5 ± 2.1 %
same,Sub-G1 phase cell population,LNCaP cells [8]; 2.5 μM,0.8 ± 0.4 %
same,G0-G1 phase cell population,LNCaP cells [8]; 5 μM,66.9 ± 2.0 %
same,G2-M phase cell population,LNCaP cells [8]; 5 μM,18.7 ± 3.5 %
same,S phase cell population,LNCaP cells [8]; 5 μM,8.1 ± 1.8 %
same,Sub-G1 phase cell population,LNCaP cells [8]; 5 μM,3.9 ± 0.7 %
same,G0-G1 phase cell population,LNCaP cells [8]; 10 μM,45.1 ± 3.1 %
same,G2-M phase cell population,LNCaP cells [8]; 10 μM,20.2 ± 2.1 %
same,S phase cell population,LNCaP cells [8]; 10 μM,6.8 ± 2.4 %
same,Sub-G1 phase cell population,LNCaP cells [8]; 10 μM,24.3 ± 3.1 %
same,AR activation of PSA expression by DHT,[9]; 10 μM,completely abolished
same,protein levels of AR,[9]; 10 μM,fell to basal level
same,protein levels of AR,[9]; 2.5 or 5 μM,not significantly altered
